Tests used:
Assay type in all cases: in vivo
[1] = tested on: redroot pigweed (Amaranthus retroflexus, AMARE); test: Pre-emerge test, greenhouse herbicide activity screening; settings: pre-emerge, 14 days after application, rating scale 0-100
Method in brief: (§1)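 Rating: 0–100 visual injury, 14 DAA. Application: acetone, 187 l/ha, 15–1000 g ai/ha, flat-fan track sprayer with nozzle 40–45 cm above soil or canopy. Post-emerge runs used 0.25% v/v surfactant on 2–3 leaf plants.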

[2] = tested on: barnyardgrass (Echinochloa crus-galli, ECHCG); test: as above; settings: pre-emerge, 14 days after application, rating scale 0-100
Method in brief: (§2)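 Compounds in acetone were track-sprayed at 15–1000 g ai/ha: pre-emergence onto soil sown the previous day, then top-watered to incorporate and later bottom-watered; post-emergence onto 2–3 leaf plants with 0.25% v/v surfactant, bottom-watered only. Ratings on a 0–100 phytotoxicity scale were taken at day 14.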

[3] = tested on: green foxtail (Setaria viridis, SETVI); test: as above; settings: pre-emerge, 14 days after application, rating scale 0-100
Method in brief: as §2

[4] = tested on: ivyleaf morningglory (Ipomoea hederacea, IPOHE); test: as above; settings: pre-emerge, 14 days after application, rating scale 0-100
Method in brief: as §2

[5] = tested on: johnsongrass (Sorghum halepense, SORHA); test: as above; settings: pre-emerge, 14 days after application, rating scale 0-100
Method in brief: as §2

[6] = tested on: lambsquarters (Chenopodium album, CHEAL); test: as above; settings: pre-emerge, 14 days after application, rating scale 0-100
Method in brief: as §2

[7] = tested on: large crabgrass (Digitaria sanguinalis, DIGSA); test: as above; settings: pre-emerge, 14 days after application, rating scale 0-100
Method in brief: as §2

[8] = tested on: sicklepod (Cassia obtusifolia, CASOB); test: as above; settings: pre-emerge, 14 days after application, rating scale 0-100
Method in brief: as §2

[9] = tested on: velvetleaf (Abutilon theophrasti, ABUTH); test: as above; settings: pre-emerge, 14 days after application, rating scale 0-100
Method in brief: as §2

[10] = tested on: field corn (Zea mays L., var. Dekalb 535, CORN); test: Pre-emerge test, crop safety; settings: pre-emerge, 14 days after application, rating scale 0-100
Method in brief: (§3)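 Fourteen days after spraying, crop and weed injury was graded visually from 0, no effect, to 100, every plant dead. Test substances were dissolved in acetone and applied at 15–1000 g ai/ha with a flat-fan nozzle. Application was either pre-emergence, one day after sowing, or post-emergence at the 2–3 leaf stage.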

[11] = tested on: upland rice (Oryza sp., var. Tebonnet, RICE); test: Pre-emerge test, crop safety; settings: pre-emerge, 14 days after application, rating scale 0-100
Method in brief: as §3

[12] = tested on: barnyardgrass (Echinochloa crus-galli, ECHCG); test: Post-emerge test, greenhouse herbicide activity screening; settings: post-emerge, 14 days after application, rating scale 0-100
Method in brief: as §3

[13] = tested on: green foxtail (Setaria viridis, SETVI); test: as above; settings: post-emerge, 14 days after application, rating scale 0-100
Method in brief: as §3

[14] = tested on: ivyleaf morningglory (Ipomoea hederacea, IPOHE); test: as above; settings: post-emerge, 14 days after application, rating scale 0-100
Method in brief: as §3

[15] = tested on: johnsongrass (Sorghum halepense, SORHA); test: as above; settings: post-emerge, 14 days after application, rating scale 0-100
Method in brief: as §3

[16] = tested on: lambsquarters (Chenopodium album, CHEAL); test: as above; settings: post-emerge, 14 days after application, rating scale 0-100
Method in brief: as §3

[17] = tested on: large crabgrass (Digitaria sanguinalis, DIGSA); test: as above; settings: post-emerge, 14 days after application, rating scale 0-100
Method in brief: as §3

[18] = tested on: redroot pigweed (Amaranthus retroflexus, AMARE); test: as above; settings: post-emerge, 14 days after application
Method in brief: as §3

[19] = tested on: sicklepod (Cassia obtusifolia, CASOB); test: as above; settings: post-emerge, 14 days after application, rating scale 0-100
Method in brief: as §3

[20] = tested on: velvetleaf (Abutilon theophrasti, ABUTH); test: as above; settings: post-emerge, 14 days after application, rating scale 0-100
Method in brief: as §3

[21] = tested on: field corn (Zea mays L., var. Dekalb 535, CORN); test: Post-emerge test, crop safety; settings: post-emerge, 14 days after application, rating scale 0-100
Method in brief: as §1

[22] = tested on: upland rice (Oryza sp., var. Tebonnet, RICE); test: Post-emerge test, crop safety; settings: post-emerge, 14 days after application, rating scale 0-100
Method in brief: as §1

COc1c(Cl)cc(F)c(-n2c(=O)cc(C(F)(F)F)n(C)c2=O)c1SC [Compound 17-1, 3-(4-chloro-6-fluoro-3-methoxy-2-thiomethylphenyl)l-methyl-6-trifluoromethyl-2,4(1H, 3H)-pyrimidinedione]
phytotoxicity rating AMARE ([1]; 63 g ai/ha): 30 | phytotoxicity rating AMARE ([1]; 250 g ai/ha): 90 | phytotoxicity rating ECHCG ([2]; 63 g ai/ha): 0 | phytotoxicity rating ECHCG ([2]; 250 g ai/ha): 70 | phytotoxicity rating SETVI ([3]; 63 g ai/ha): 50 | phytotoxicity rating SETVI ([3]; 250 g ai/ha): 80 | phytotoxicity rating IPOHE ([4]; 63 g ai/ha): 10 | phytotoxicity rating IPOHE ([4]; 250 g ai/ha): 70 | phytotoxicity rating SORHA ([5]; 63 g ai/ha): 0 | phytotoxicity rating SORHA ([5]; 250 g ai/ha): 60 | phytotoxicity rating CHEAL ([6]; 63 g ai/ha): 90 | phytotoxicity rating CHEAL ([6]; 250 g ai/ha): 100 | phytotoxicity rating DIGSA ([7]; 63 g ai/ha): 20 | phytotoxicity rating DIGSA ([7]; 250 g ai/ha): 80 | phytotoxicity rating CASOB ([8]; 63 g ai/ha): 0 | phytotoxicity rating CASOB ([8]; 250 g ai/ha): 80 | phytotoxicity rating ABUTH ([9]; 63 g ai/ha): 95 | phytotoxicity rating ABUTH ([9]; 250 g ai/ha): 100 | phytotoxicity rating CORN ([10]; 63 g ai/ha): 0 | phytotoxicity rating CORN ([10]; 250 g ai/ha): 10 | phytotoxicity rating RICE ([11]; 63 g ai/ha): 10 | phytotoxicity rating RICE ([11]; 250 g ai/ha): 30 | Post-emerge Herbicidal Activity ECHCG (phytotoxicity rating) ([12]; 63 g ai/ha): 0 | Post-emerge Herbicidal Activity ECHCG (phytotoxicity rating) ([12]; 250 g ai/ha): 0 | Post-emerge Herbicidal Activity SETVI (phytotoxicity rating) ([13]; 63 g ai/ha): 0 | Post-emerge Herbicidal Activity SETVI (phytotoxicity rating) ([13]; 250 g ai/ha): 0 | Post-emerge Herbicidal Activity IPOHE (phytotoxicity rating) ([14]; 63 g ai/ha): 80 | Post-emerge Herbicidal Activity IPOHE (phytotoxicity rating) ([14]; 250 g ai/ha): 80 | Post-emerge Herbicidal Activity SORHA (phytotoxicity rating) ([15]; 63 g ai/ha): 0 | Post-emerge Herbicidal Activity SORHA (phytotoxicity rating) ([15]; 250 g ai/ha): 0 | Post-emerge Herbicidal Activity CHEAL (phytotoxicity rating) ([16]; 63 g ai/ha): 30 | Post-emerge Herbicidal Activity CHEAL (phytotoxicity rating) ([16]; 250 g ai/ha): 60 | Post-emerge Herbicidal Activity DIGSA (phytotoxicity rating) ([17]; 63 g ai/ha): 0 | Post-emerge Herbicidal Activity DIGSA (phytotoxicity rating) ([17]; 250 g ai/ha): 0 | Post-emerge Herbicidal Activity AMARE (phytotoxicity rating) ([18]; 63 g ai/ha, rating scale 0-100 (0 no damage, 100 complete death)): 10 | Post-emerge Herbicidal Activity AMARE (phytotoxicity rating) ([18]; 250 g ai/ha, rating scale 0-100): 30 | Post-emerge Herbicidal Activity CASOB (phytotoxicity rating) ([19]; 63 g ai/ha): 20 | Post-emerge Herbicidal Activity CASOB (phytotoxicity rating) ([19]; 250 g ai/ha): 10 | Post-emerge Herbicidal Activity ABUTH (phytotoxicity rating) ([20]; 63 g ai/ha): 70 | Post-emerge Herbicidal Activity ABUTH (phytotoxicity rating) ([20]; 250 g ai/ha): 70 | Post-emerge Herbicidal Activity CORN (crop damage rating) ([21]; 63 g ai/ha): 0 | Post-emerge Herbicidal Activity CORN (crop damage rating) ([21]; 250 g ai/ha): 5 | Post-emerge Herbicidal Activity RICE (crop damage rating) ([22]; 63 g ai/ha): 0 | Post-emerge Herbicidal Activity RICE (crop damage rating) ([22]; 250 g ai/ha): 0

From patent publication US6355799B1, “Substituted benzene compounds, process for their preparation, and herbicidal and defoliant compositions containing them” (ISK Americas Incorporated, priority 1997, dated 2002)
